Reference: patent US20260242404A1, “INTERGLYCAN ESTERS OF SUCROSE DICARBOXYLATE AND FRUCTOFURANURONATE, PROCESS FOR THE MANUFACTURE THEREOF, AND USE THEREOF AS A HYPOGLYCEMIC SLOW SUGAR” (priority 2022, published 2026)

Key:
[1] = test system: blood sugar (glucose levels in the blood); assay: Glycemic index by oral induced hyperglycemia protocol (HGPVO / OGTT); format: in vivo; conditions: analyses repeated on two subjects, traditional commercial white sugar as control (FIG. 9)
HbA1c = HbA1c level calculated from average blood sugar level; format: in vivo; conditions: HbA1C 7% = 1.5 g/L average blood sugar, 1% HbA1C = 0.30 g/litre
Description: Its consumption is therefore intended for healthy subjects and also for type 2 diabetics. […] For the new natural white granulated or powdered slow sugar of this invention the following result is obtained: [formula] For traditional white commercial sugar and for comparison purposes we obtain the following result: [formula]

Question: Which “glycemic index, in words” value [1] does the source give for `OC[C@H]1O[C@@](CO)(O[C@H]2O[C@H](CO)[C@@H](O)[C@H](O)[C@H]2O)[C@@H](O)[C@@H]1O` [commercial white natural sugar, sucrose] here?
Answer: very high

Question: What about the “increases HbA1c level by” value (HbA1c) of the same compound?
Answer: 9.2%
